Experimental findings from ChEMBL document CHEMBL1134749, “Synthesis and structure-activity relationships of 5-substituted pyridine analogues of 3” (Bioorg Med Chem Lett, 2001) are described below.

The target in the first experiment is Nicotinic acetylcholine receptor alpha3/betaX (Homo sapiens) (UniProt P11230+P17787+P30926+P32297+Q05901). Put plainly: Antagonistic activity against Nicotinic acetylcholine receptor (alpha3-betaX subunit) in IMR 32 cell line using 100 uM of (-)-nicotine as agonist. Format: functional, cell-based.
In the case of `CN1CCC[C@H]1COc1cncc(-c2cncnc2)c1`, the Max efficacy amounted to 38.9%.

In the next experiment the target is Nicotinic acetylcholine receptor alpha3/betaX. As to the kind of experiment: (§1) Antagonistic activity against neuronal nicotinic acetylcholine receptor (alpha3-betaX subunit) in IMR 32 cell line using 100 uM of (-)-nicotine as agonist. Type of experiment: functional, cell-based, Homo sapiens.
Turning to `CN1CCC[C@H]1COc1cncc(-c2cncnc2)c1`, the EC50 (as a rule, the concentration needed to bring the measured effect to its halfway point) was found to be 32.4 µM.

Another experiment deals with Neuronal acetylcholine receptor; alpha4/beta2 (Rattus norvegicus, UniProt P09483+P12390). As to the kind of experiment: In vitro ability to displace [3H](-)-cytisine binding to whole rat brain membranes at Nicotinic acetylcholine receptor alpha4-beta2. More on the design: species or system Membrane.
Chain of Neuronal acetylcholine receptor; alpha4/beta2 (P09483 whole entry): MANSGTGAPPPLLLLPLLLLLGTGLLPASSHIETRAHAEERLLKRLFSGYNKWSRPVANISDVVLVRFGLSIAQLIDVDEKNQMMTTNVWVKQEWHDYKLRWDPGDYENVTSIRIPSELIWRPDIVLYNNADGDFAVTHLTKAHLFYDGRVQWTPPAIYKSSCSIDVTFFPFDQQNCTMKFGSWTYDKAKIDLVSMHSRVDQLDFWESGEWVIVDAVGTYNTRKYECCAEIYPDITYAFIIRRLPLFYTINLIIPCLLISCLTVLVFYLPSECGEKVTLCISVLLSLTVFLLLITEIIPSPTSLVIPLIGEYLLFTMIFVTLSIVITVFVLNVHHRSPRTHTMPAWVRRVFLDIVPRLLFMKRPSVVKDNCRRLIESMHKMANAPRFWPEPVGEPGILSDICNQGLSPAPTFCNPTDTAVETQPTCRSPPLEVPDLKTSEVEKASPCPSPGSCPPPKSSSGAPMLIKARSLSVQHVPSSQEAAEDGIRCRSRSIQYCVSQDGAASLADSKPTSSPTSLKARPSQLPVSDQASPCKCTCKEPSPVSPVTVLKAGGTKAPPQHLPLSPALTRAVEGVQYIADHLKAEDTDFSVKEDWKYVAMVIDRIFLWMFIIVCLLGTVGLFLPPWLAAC
Chain of Neuronal acetylcholine receptor; alpha4/beta2 (P12390 whole entry): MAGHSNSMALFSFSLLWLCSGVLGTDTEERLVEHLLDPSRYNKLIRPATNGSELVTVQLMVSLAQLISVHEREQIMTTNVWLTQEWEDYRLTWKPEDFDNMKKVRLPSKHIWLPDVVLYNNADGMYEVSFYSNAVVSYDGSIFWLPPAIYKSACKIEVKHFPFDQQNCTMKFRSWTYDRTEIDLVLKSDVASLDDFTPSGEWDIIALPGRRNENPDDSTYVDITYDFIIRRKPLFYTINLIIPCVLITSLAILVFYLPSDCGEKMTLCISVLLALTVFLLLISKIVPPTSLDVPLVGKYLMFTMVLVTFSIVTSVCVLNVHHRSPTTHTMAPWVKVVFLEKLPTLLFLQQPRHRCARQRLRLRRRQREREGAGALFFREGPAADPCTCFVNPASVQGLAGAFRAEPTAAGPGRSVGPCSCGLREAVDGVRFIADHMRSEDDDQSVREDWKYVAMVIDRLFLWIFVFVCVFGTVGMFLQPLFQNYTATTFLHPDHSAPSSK
In the case of `Cc1ccc(C#Cc2cncc(OC[C@@H]3CCCN3C)c2)cc1`, affinity was put at a Ki of 0.31 nM. Regarding `CN1CCC[C@H]1COc1cncc(-c2cc3ccccc3o2)c1`, the affinity, expressed as Ki, was 0.15 nM. The same measure, in the same setting: with `CN1CCC[C@H]1COc1cncc(-c2cncnc2)c1` the figure was 0.37 nM; with `CN1CCC[C@H]1COc1cncc(/C=C/c2ccncc2)c1`, 0.12 nM.

For another experiment, the target named is Nicotinic acetylcholine receptor alpha3/betaX. Described as §1. Format: functional, cell-based.
Regarding `Cc1ccc(C#Cc2cncc(OC[C@@H]3CCCN3C)c2)cc1`, the IC50 – broadly, the concentration that gives 50% inhibition – is 1.5 µM. On the same count and under the same terms, with `CN1CCC[C@H]1COc1cncc(CCc2ccccc2)c1` the figure was 1.1 µM. Same read-out and setting: with `CN1CCC[C@H]1COc1cncc(-c2ccc(Cl)cc2)c1` the figure was 1.99 µM. On the same count and under the same terms, next, `CN1CCC[C@H]1COc1cncc(-c2cc3ccccc3o2)c1`: 2.9 µM; `CN1CCC[C@H]1COc1cncc(C#Cc2ccccc2)c1`: 0.79 µM; `CN1CCC[C@H]1COc1cncc(CCc2ccncc2)c1`: 6.3 µM.

Take `CN1CCC[C@H]1COc1cncc(-c2ccccc2)c1`: the IC50 was 5.1 µM. On to `CN1CCC[C@H]1COc1cncc(-c2cccc3ccccc23)c1`, for which the IC50 was 0.69 µM.

`CN1CCC[C@H]1COc1cncc(/C=C/c2ccncc2)c1`: the IC50 was determined as 7.6 µM. The same measure, in the same setting: with `Cc1ccccc1-c1cncc(OC[C@@H]2CCCN2C)c1` the figure was 1.25 µM. Same read-out and setting: with `CN1CCC[C@H]1COc1cncc(-c2ccc(F)c(Cl)c2)c1` the figure was 7.3 µM. On the same count and under the same terms, next, `COc1ccc(-c2cncc(OC[C@@H]3CCCN3C)c2)cc1`: 6.97 µM. Compound `CN1CCC[C@H]1COc1cncc(-c2ccco2)c1` came in with an IC50 of 7.9 µM. `CN1CCC[C@H]1COc1cncc(-c2cccnc2)c1` returned an IC50 of 24.7 µM. In turn, `CN1CCC[C@H]1COc1cncc(-c2cccc([N+](=O)[O-])c2)c1` returned an IC50 of 2.33 µM. Same read-out and setting: next, `CN1CCC[C@H]1COc1cncc(-c2ccccc2C=O)c1`: 6.31 µM; `CN1CCC[C@H]1COc1cncc(-c2cc3ccccc3n2C)c1`: 6.1 µM; `CN1CCC[C@H]1COc1cncc(-c2ccc3ccccc3c2)c1`: 3.4 µM. Same read-out and setting: next, `CN1CCC[C@H]1COc1cncc(-c2cccs2)c1`: 1.7 µM; `CN1CCC[C@H]1COc1cncc(-c2ccc(C(F)(F)F)cc2)c1`: 5.71 µM. Still for that read-out and setting: next, `CN1CCC[C@H]1COc1cncc(-c2cnc3ccccc3c2)c1`: 5.1 µM. `Cc1ccc(-c2cncc(OC[C@@H]3CCCN3C)c2)cc1`: the IC50 was found to be 0.8 µM. As for `CN1CCC[C@H]1COc1cncc(/C=C/c2ccccc2)c1`, the IC50 amounted to 4.8 µM.

The compound `CN1CCC[C@H]1COc1cncc(-c2ccc(Cl)cc2Cl)c1` displayed an IC50 of 0.89 µM. On the same count and under the same terms, next, `CN1CCC[C@H]1COc1cncc(-c2cccc(N)c2)c1`: 6.9 µM; `CN1CCC[C@H]1COc1cncc(-c2cc(C(F)(F)F)cc(C(F)(F)F)c2)c1`: 2.35 µM; `CN1CCC[C@H]1COc1cncc(-c2ccc(F)cc2)c1`: 6.48 µM.
